# Measurements reported in a melting point compilation (Tetko et al.; mined from patent text by program, amines drawn as free bases though some values may be those of a salt).
row,SMILES,melting point [°C]
1,O=C(OCC(Cl)(Cl)Cl)ON1C(=O)CCC1=O,98 to 101
2,O=C(NS(=O)(=O)c1ccccc1C(=O)OC1COC1)Oc1ccccc1,91 to 92
3,COc1ccc2c(c1)C(=O)NCC2,90 to 93
4,c1ccc(CN2CCC3(CC2)OCCCO3)cc1,< 50
5,O=[N+]([O-])N=C(NCc1cnc(Cl)s1)NCc1cnc(Cl)s1,217 to 218
6,COc1ccc(-c2cnc(N3CCC(O)CC3)nc2)cc1,158 to 160
7,CCCCOC(=O)CNC(=O)c1ncc(C(=O)OCCCC)cc1OC,80 to 81
8,N#Cc1c(F)nc2ccc([N+](=O)[O-])cc2c1F,128 to 129
9,O=[N+]([O-])c1ccc(C23CCN(CC2)CC3)cc1,130 to 135
10,O=c1[nH]ncc2[nH]c(-c3ccc(OC(F)F)c4c3C=CC(C3CC3)O4)cc12 (stereo not drawn),232 to 242
11,COc1cc(Nc2c(C#N)cnc3cc(-c4csc(C=O)c4)sc23)c(Cl)cc1Cl,259 to 261
12,Cc1noc(NS(=O)(=O)c2c(C(=O)c3ccc4c(c3)OCO4)sc3ncccc23)c1Cl,75 to 90
13,CCN(CC)CCOC(=O)C1=C(C)NC(C)=C(c2nnco2)C1c1cccc(Cl)c1Cl (stereo not drawn),142 to 144
14,O=C(Nc1ccc(-c2ccccc2)cc1C(=O)O)OCc1ccc(-c2ccccc2)cc1,234 to 236
15,Cn1c(=O)c(-c2ccc(Cl)cc2Cl)cc2c3cc(-c4ccno4)ccc3n(C)c21,241 to 242
16,COc1ccnc(CSc2nc3cscc3[nH]2)c1,172 to 175
17,CCc1nc2c(c(C)c(C)n3nnnc23)n1CCOCCNS(C)(=O)=O,216 to 218
18,CCOC(=O)c1cn(C)c2cnc3cc(F)c(N4CCC(O)(c5cccc(C(F)(F)F)c5)CC4)cc3c2c1=O,262
19,CCC(C1CCCC1)C(O)(c1ccc(O)cc1)c1ccc(OCCN(C)C)cc1 (stereo not drawn),112 to 120
20,CCC[C@H](NC(=O)Cc1cc(F)cc(F)c1)C(=O)Nc1ncc(-c2ccc(OC)cc2COC(C)C)s1,73.9
21,Nc1c(I)cc(Cl)cc1[N+](=O)[O-],134 to 135
22,CN(C)C(=O)[C@@H]1C[C@H](C(=O)OC(C)(C)C)N[C@@H]1c1ccccc1 (racemic),97
23,O=C1c2ccccc2-c2c1c(N1CCN(c3ccccn3)CC1)nc1ccc(Br)cc21,186 to 188
24,COc1ccc(NC(=O)Nc2ccc(Cl)c(Cl)c2)cc1NS(=O)(=O)c1cc(Cl)cc(Cl)c1,225 to 227
25,CC(C)(C)OC(=O)N1CC=C(c2cnc3c(c2)N(Cc2cc(Cl)ccc2Cl)CCN3)CC1,92 to 95
26,CC(=O)NC[C@H]1CN(c2ccc(N3CC(C)(O)C3)c(F)c2)C(=O)O1,152 to 153

# Continued, values first:
row,melting point [°C],SMILES
1,176 to 177,O=C(c1cc2ccc(Br)cc2o1)c1cc2ccc(Br)cc2o1
2,> 250,O=c1ccc2cnc(Nc3ccccn3)nc2n1C1CCCC1
3,225 to 227,CC1(C)CCOc2c(C(O)C#Cc3ccc(C(=O)O)c(O)c3)cccc21 (stereo not drawn)
4,125 to 127,O=S(=O)(On1nnc2ccc(Cl)cc21)c1ccc(Cl)cc1
5,264 to 267,COC1=CC(=O)c2cc(O)ccc2C1=O
6,200 to 201,COc1ccc(C(=O)Cc2c(Cl)cncc2Cl)c2c(CC(=O)OCc3ccccc3[N+](=O)[O-])coc12
7,107,O=C1Nc2ccc(F)cc2C(C#Cc2ccccc2)(C(F)(F)F)N1 (racemic)
8,370,O=C1NC(=O)C2(c3ccc4ccc(O)nc4n3)C=CC=CC12 (stereo not drawn)
9,206,O=C(O)Cc1c([N+](=O)[O-])ccc2c1O[C@@H](CNCc1ccccc1)CO2
10,196 to 197,O=C(O)C1(C(=O)O)CCC(c2c(-c3ccccc3)[nH]c3ccccc23)CC1
11,150,CC(C)(C)OC(=O)NCC(=O)Oc1cccc(-c2cn3c(n2)sc2ccccc23)c1
12,154 to 160,COc1ccc2c(c1)N(c1ccc(F)cc1)C(=O)C2(CCc1nnn[nH]1)NC(=O)c1cc2ccccc2cn1 (stereo not drawn)
